Assay results taken from patent publication US9546151B2, “VMAT inhibitory compounds” (Oregon Health & Science University, priority 2014, dated 2017).
Where two headings read alike, the source gives them in different places.

Assays:
human 5HT1A receptor = target: T1, human 5HT1A receptor (Homo sapiens, UniProt P08908); assay: h5HT1A receptors: [3H]8-OH-DPAT binding; details: read-out: 5-HT1A [^3H] 8—OH DPAT Ki(nM) ± SEM
T1 construct: expressed in transfected cells; host or cells: HEK cells (G418 selection)
T1 sequence (P08908 1-422): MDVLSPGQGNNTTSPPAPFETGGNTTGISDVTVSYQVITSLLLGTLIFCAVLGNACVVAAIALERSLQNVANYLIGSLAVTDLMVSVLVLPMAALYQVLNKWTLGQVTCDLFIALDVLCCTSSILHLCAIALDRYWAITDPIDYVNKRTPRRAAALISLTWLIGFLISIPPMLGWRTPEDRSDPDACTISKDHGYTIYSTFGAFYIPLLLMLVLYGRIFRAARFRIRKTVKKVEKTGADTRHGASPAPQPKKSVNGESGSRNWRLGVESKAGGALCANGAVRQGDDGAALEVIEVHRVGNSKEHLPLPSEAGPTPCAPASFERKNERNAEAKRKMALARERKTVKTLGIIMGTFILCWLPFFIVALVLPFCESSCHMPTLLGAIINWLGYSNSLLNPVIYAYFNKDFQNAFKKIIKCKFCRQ
Description: Human embryonic kidney cells expressing the human 5HT1A receptor (HEK-h5HT1A) were used. The cells were grown to confluence in DMEM containing 10% FetalClone® (abbreviated as FC—source: HyClone), 0.05% penicillin-streptomycin (pen-strep), and 300 μg/mL of Geneticin (G418). The cells were scraped from 150 mm plates into phosphate-buffered saline and centrifuged at 270×g, 1200 rpm, for 10 minutes. The cell pellet was homogenized in 50 mM Tris-HCl (pH 7.7) with a Polytron, and centrifuged at 27,000×g. […] The final pellet was resuspended at 0.5 mg protein/mL in assay buffer (25 mM Tris-HCl, pH 7.4, containing 100 μM ascorbic acid and 10 μM pargyline). The assay was performed in duplicate in a 96-well plate. Serial dilutions of test compounds were made using the Biomek 2000 robotics system. […] Nonspecific binding was determined with 1.0 μM dihydroergotamine. The plates were incubated at room temperature for 60 minutes and then filtered through polyethylenimine-soaked (0.05%) “A” filtermats on a Tomtec cell harvester. The filters were washed with cold 50 mM Tris buffer (pH 7.7) for 6 sec, dried, spotted with scintillation cocktail, and counted for 2 minutes after a 4 hour delay on a Wallac Betaplate 1205 liquid scintillation counter.

VMAT2 [1] = target: T2, VMAT2 (Homo sapiens, UniProt Q05940); assay: hVMAT2 5HT Uptake; type: biochemical; design: expressed in transfected cells; host or cells: HEK (human embryonic kidney) cells
Method in brief: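 Membranes came from HEK cells expressing human VMAT2, homogenized in 0.32 M sucrose with protease inhibitors and spun at 800×g then 10,000×g. The pellet was osmotically shocked in ice-cold water, restored with Tris pH 7.4, sodium potassium tartrate and MgSO4, and collected at 20,000×g.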
Target sequence in this assay (Q05940 whole entry): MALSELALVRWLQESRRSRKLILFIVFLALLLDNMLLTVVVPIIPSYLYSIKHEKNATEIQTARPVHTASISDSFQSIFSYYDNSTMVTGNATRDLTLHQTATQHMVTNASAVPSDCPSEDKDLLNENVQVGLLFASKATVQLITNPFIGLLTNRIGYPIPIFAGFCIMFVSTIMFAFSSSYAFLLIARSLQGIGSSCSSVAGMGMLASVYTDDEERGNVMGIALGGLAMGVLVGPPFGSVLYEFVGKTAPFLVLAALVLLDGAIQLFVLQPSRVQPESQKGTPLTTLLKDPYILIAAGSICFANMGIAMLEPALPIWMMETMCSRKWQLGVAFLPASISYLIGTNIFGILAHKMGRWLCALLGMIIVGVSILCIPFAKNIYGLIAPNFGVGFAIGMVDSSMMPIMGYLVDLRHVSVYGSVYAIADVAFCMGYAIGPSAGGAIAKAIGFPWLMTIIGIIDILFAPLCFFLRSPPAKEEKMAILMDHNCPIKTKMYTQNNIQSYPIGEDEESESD

human 5HT2A receptor = target: T3, human 5HT2A receptor (Homo sapiens, UniProt P28223); assay: h5HT2A receptors: [125I]DOI binding
T3 construct: expressed in transfected cells; host or cells: HEK cells
T3 sequence (P28223 whole entry): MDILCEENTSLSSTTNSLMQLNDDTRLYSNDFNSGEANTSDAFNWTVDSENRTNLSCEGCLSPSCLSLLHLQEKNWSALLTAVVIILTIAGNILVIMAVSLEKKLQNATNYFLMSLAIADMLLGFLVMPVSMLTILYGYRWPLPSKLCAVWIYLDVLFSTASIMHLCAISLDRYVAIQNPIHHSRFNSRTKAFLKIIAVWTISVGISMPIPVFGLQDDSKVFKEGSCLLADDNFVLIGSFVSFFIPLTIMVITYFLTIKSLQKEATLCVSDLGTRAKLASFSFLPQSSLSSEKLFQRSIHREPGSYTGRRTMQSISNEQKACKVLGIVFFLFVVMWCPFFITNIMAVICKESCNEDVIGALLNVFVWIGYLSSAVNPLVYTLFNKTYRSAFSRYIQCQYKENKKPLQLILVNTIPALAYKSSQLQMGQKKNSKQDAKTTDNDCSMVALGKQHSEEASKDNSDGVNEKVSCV
Description: Method: Human embryonic kidney cells expressing the human 5HT2A receptor (HEK-h5HT2A) or human 5HT2C receptor (HEK-h5HT2C) were used. The cells were grown until confluent on 15 cm plates. Media was removed, cells were washed with phosphate-buffered saline (PBS), scraped into 2 ml PBS and frozen at −20° C. until needed. Cell suspension was thawed, 10 ml assay buffer (50 mM Tris, pH 7.4 at 37° C., with 0.1% ascorbic acid and 5 mM CaCl2) was added per plate of cells, and polytronned at setting 6 for 5 sec. The homogenate was centrifuged at 15,500 rpm for 20 min. […] The final pellet was resuspended in 2 ml buffer/plate of cells.
The reaction was incubated for 1 hour at 37° C., and terminated by filtration through Wallac A filtermats presoaked in 0.05% polyethylenimine using a Tomtec 96-well harvester. Radioactivity remaining on filters was counted in a Wallac betaplate reader. IC50 values were calculated using GraphPad Prism. IC50 values were converted using the Cheng-Prusoff equation.

VMAT2 [2] = target: T2, VMAT2; assay: hVMAT2 [3H]DTBZ ([3H]DHTB) binding assay; design: expressed in transfected cells; host or cells: HEK (human embryonic kidney) cells
Target sequence in this assay (Q05940 whole entry): as the sequence (Q05940 whole entry) above

VMAT2 [3] = target: T2, VMAT2; details: background statements; cited from earlier work
Target sequence in this assay (Q05940 whole entry, species assumed): as the sequence (Q05940 whole entry) above

[4] = base; cited from earlier work
VMAT2 [5] = target: T2, VMAT2; details: high concentrations; cited from earlier work
Target sequence in this assay (Q05940 whole entry, species assumed): as the sequence (Q05940 whole entry) above

human 5HT2C receptor = target: T4, human 5HT2C receptor (Homo sapiens, UniProt P28335); assay: h5HT2C receptors: [125I]DOI binding; details: read-out: Kd for [^125I] DOI at 5HT2C receptors; used in Cheng-Prusoff equation
T4 construct: expressed in transfected cells; host or cells: HEK cells
T4 sequence (P28335 33-458): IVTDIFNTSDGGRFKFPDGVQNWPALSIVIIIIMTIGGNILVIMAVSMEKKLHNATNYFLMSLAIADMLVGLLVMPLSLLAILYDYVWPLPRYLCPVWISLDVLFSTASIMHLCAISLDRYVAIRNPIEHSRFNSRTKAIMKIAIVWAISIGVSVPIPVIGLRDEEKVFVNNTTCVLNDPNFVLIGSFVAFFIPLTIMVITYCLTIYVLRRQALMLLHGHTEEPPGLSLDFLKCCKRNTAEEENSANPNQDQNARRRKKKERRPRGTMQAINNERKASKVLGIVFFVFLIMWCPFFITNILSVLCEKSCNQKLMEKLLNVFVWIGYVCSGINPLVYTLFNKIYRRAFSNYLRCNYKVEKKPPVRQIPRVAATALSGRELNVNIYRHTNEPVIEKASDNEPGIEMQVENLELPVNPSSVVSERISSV
Description: The method was adapted from AR Knight et al, Naunyn-Schmeideberg's Arch Pharmacol 370, 114-123 (2004).
Method: Human embryonic kidney cells expressing the human 5HT2A receptor (HEK-h5HT2A) or human 5HT2C receptor (HEK-h5HT2C) were used. The cells were grown until confluent on 15 cm plates. Media was removed, cells were washed with phosphate-buffered saline (PBS), scraped into 2 ml PBS and frozen at −20° C. until needed. Cell suspension was thawed, 10 ml assay buffer (50 mM Tris, pH 7.4 at 37° C., with 0.1% ascorbic acid and 5 mM CaCl2) was added per plate of cells, and polytronned at setting 6 for 5 sec. The homogenate was centrifuged at 15,500 rpm for 20 min. To minimize the residual 5HT concentration, the pellet was resuspended in buffer, polytronned, and centrifuged as above. The final pellet was resuspended in 2 ml buffer/plate of cells.
The binding assay included 50 μl drug, 5HT or buffer, 50 μl cell homogenate, 50 μl [^125I]DOI (˜0.1 nM) and buffer in a final volume of 250 μl. Specific binding was defined as the difference between total binding and binding in the presence of 10 μM 5HT. The reaction was incubated for 1 hour at 37° C., and terminated by filtration through Wallac A filtermats presoaked in 0.05% polyethylenimine using a Tomtec 96-well harvester. Radioactivity remaining on filters was counted in a Wallac betaplate reader. IC50 values were calculated using GraphPad Prism. […]

[6] = target: T5, recombinant human dopamine transporter (hDAT) (Homo sapiens, UniProt Q01959); assay: [125I]RTI-55 binding, HEK-hDAT; details: used in Cheng-Prusoff equation
T5 construct: expressed in transfected cells; host or cells: HEK cells
T5 sequence (Q01959 whole entry): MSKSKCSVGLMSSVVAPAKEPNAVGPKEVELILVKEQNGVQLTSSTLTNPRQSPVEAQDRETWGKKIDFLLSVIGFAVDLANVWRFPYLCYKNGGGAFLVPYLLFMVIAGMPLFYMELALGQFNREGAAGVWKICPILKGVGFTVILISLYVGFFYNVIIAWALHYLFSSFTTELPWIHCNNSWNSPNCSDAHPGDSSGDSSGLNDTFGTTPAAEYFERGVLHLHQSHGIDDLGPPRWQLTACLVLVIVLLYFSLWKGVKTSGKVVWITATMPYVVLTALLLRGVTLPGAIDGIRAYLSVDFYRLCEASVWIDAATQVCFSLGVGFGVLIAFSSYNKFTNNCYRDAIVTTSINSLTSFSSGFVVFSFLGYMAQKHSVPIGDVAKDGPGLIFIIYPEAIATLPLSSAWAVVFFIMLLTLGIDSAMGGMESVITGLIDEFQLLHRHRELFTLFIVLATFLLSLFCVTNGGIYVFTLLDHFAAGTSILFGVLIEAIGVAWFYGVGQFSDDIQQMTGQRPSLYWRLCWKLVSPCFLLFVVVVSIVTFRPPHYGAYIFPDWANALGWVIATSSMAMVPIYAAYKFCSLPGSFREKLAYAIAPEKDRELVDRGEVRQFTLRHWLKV
Description: (§1) Standard methods of assessing [^3H]neurotransmitter uptake and [^125I]RTI-55 binding using HEK cell lines are described in Eshleman et al, J Pharmacol Exp Therap 289, 877-885 (1999), which is incorporated by reference herein and were as follows:
(§2) Compounds were weighed and dissolved in DMSO to make a stock solution of 10 mM. An initial dilution to 50 μM in assay buffer or water for binding, or to 1 mM in assay buffer or water for uptake, was made. Subsequent dilutions were made with assay buffer supplemented with DMSO, maintaining a final concentration of 0.1% DMSO. Pipetting was conducted using a Biomek 2000 robotic workstation.
(§3) Cells were grown to 100% confluence on 150 mm diameter tissue culture dishes and served as the tissue source. Cell membranes were prepared as follows. Medium was poured off the plate, and the plate was washed with 10 ml of calcium- and magnesium-free phosphate-buffered saline. Lysis buffer (10 ml; 2 mM HEPES with 1 mM EDTA) was added. After 10 min, lysed cells were scraped from plates, transferred into centrifuge tubes, and centrifuged at 30,000×g for 20 min. The supernatant fluid was removed, and the pellet was resuspended in 12-32 ml of sucrose (0.32 M) using a Polytron at setting 7 for 10 sec. The resuspension volume depended on the density of binding sites within a cell line and was chosen to reflect binding of 10% or less of the total radioactivity. […]

[7] = target: T6, recombinant human norepinephrine transporter (hNET) (Homo sapiens, UniProt P23975); assay: [125I]RTI-55 binding, HEK-hNET; details: used in Cheng-Prusoff equation
T6 construct: expressed in transfected cells; host or cells: HEK cells
T6 sequence (P23975 whole entry): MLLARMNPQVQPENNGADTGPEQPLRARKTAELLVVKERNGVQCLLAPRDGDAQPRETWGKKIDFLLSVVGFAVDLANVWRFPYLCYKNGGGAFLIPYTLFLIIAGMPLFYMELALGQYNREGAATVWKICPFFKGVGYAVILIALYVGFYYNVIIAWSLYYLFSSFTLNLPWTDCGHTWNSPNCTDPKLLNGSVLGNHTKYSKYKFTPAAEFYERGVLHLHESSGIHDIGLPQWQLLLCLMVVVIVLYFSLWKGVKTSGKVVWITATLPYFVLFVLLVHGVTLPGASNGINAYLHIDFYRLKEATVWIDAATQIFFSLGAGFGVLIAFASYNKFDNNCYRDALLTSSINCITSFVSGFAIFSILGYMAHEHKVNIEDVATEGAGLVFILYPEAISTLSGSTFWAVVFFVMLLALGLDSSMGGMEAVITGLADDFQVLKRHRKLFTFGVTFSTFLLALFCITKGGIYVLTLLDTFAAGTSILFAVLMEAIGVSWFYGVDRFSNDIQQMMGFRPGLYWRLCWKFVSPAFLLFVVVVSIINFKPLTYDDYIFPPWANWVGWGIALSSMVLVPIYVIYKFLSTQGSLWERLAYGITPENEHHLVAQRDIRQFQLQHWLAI
Description: as §1, §2, §3

[8] = target: T7, recombinant human serotonin transporter (hSERT) (Homo sapiens, UniProt P31645); assay: [125I]RTI-55 binding, HEK-hSERT; details: used in Cheng-Prusoff equation
T7 construct: expressed in transfected cells; host or cells: HEK cells
T7 sequence (P31645 whole entry): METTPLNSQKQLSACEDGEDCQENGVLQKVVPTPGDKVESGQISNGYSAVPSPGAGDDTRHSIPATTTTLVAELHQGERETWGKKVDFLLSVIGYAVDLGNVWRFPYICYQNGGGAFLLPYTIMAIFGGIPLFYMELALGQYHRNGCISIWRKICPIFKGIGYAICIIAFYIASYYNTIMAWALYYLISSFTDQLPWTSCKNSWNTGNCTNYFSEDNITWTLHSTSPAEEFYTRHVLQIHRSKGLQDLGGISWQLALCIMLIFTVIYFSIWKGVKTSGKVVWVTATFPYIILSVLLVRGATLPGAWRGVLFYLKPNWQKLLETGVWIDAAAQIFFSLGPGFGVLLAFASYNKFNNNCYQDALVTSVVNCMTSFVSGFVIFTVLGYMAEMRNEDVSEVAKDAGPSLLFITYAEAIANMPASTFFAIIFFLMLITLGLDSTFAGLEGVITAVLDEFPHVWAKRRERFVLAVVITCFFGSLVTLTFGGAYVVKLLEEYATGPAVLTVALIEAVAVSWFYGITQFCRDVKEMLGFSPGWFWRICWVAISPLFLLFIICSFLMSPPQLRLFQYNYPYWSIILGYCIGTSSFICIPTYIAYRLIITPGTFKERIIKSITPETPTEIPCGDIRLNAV
Description: as §1, §2, §3

[9] = rats, lever press; Harrod et al 2001; cited from earlier work
DAT = DAT (Homo sapiens, UniProt Q01959); details: transfected cells; Miller et al 2004; cited from earlier work
DAT, sequence (Q01959 whole entry, species assumed): as the sequence (Q01959 whole entry) above

VMAT2 [10] = target: T2, VMAT2; details: transfected cells; Miller et al 2004; cited from earlier work
Target sequence in this assay (Q05940 whole entry, species assumed): as the sequence (Q05940 whole entry) above

CCOC(=O)[C@@H]1CN(CCn2c(=O)[nH]c3ccccc3c2=O)CC[C@@H]1c1ccc(C(C)O)cc1 (mixture of isomers) [Compound 5p, (±) syn-ethyl 1-(2-(2,4-dioxo-1,2-dihydroquinazolin-3(4H)-yl)ethyl)-4-(4-(1-hydroxyethyl)phenyl)piperidine-3-carboxylate]
Ki (human 5HT1A receptor; cells printed in μM under a head in nM): > 10 µM
IC50 (VMAT2 [1]; cells printed in μM under a head in nM, read-out: hVMAT2 5HT Uptake IC50 (nM) ± SEM): > 8 µM
melting point: 187 to 188 °C
Ki (human 5HT2A receptor; cells printed in μM under a head in nM, read-out: 5-HT2A [^125I]DOI Ki (nM) ± SEM): > 10 µM
Ki (VMAT2 [2]; cells printed in μM under a head in nM, HEK-hVMAT2 membranes): > 9 µM

O=C(c1ccc(F)cc1)C1CCN(CCn2c(=O)[nH]c3ccccc3c2=O)CC1 [Ketanserin]
affinity for VMAT2 (in words) (VMAT2 [3]): high affinity

CN[C@@H](C)Cc1ccccc1 [MA, Methamphetamine]
pKa [4]: 9.8
concentration for inhibition of [^3H]DTBZ binding (VMAT2 [5]): 1.2 mM

CCOC(=O)C1=C(c2ccccc2)CCN(CCn2c(=O)[nH]c3ccccc3c2=O)C1 [R1=CO2-Et, 3,4-bond=ene]
Ki (human 5HT1A receptor; HEK-h5HT1A homogenate): > 0.0063 µM
IC50 (VMAT2 [1]): 0.066 ± 0.015 µM
Ki (human 5HT2A receptor): 0.081 ± 0.026 µM
Ki (VMAT2 [2]; read-out: hVMAT2 [^3H]DTBZ Ki (nM) ± SEM): 0.874 ± 0.276 µM

O=c1[nH]c2ccccc2c(=O)n1CCN1CC=C(c2ccccc2)CC1 [R1=H, 3,4-bond=ene]
Ki (human 5HT1A receptor; HEK-h5HT1A homogenate): 0.197 ± 0.015 µM
IC50 (VMAT2 [1]): 0.0039 ± 0.0005 µM
Ki (human 5HT2A receptor; HEK-h5HT2A homogenate, read-out: 5-HT2A [^125I]DOI Ki (nM) ± SEM): 0.139 ± 0.027 µM
Ki (VMAT2 [2]; HEK-hVMAT2 membranes, series 5 ligands tested as hydrochloride salts): 0.821 ± 0.197 µM

COc1cc(CC(C)N)c(OC)cc1I (centres unmarked) [[^125I] DOI]
Kd (human 5HT2C receptor): 4.18 nM

COC(=O)[C@H]1[C@@H](c2ccc(I)cc2)C[C@@H]2CC[C@H]1N2C [[^125I]RTI-55]
Kd [6]: 1.2 nM
Kd [7]: 12.1 nM
Kd [8]: 0.98 nM

CN1[C@@H](CC(=O)c2ccccc2)CCC[C@H]1C[C@H](O)c1ccccc1 [lobeline, 2-((2R,6S)-6-((S)-2-Hydroxy-2-phenylethyl)-1-methylpiperidin-2-yl)-1-phenylethanone]
responding for intravenous MA or sucrose after pretreatment [9]: decreased responding to both acutely
affinity at the DAT (DAT): 5.4 µM
affinity at VMAT2 (VMAT2 [10]): 4.3 µM
